Experimental data published in patent publication US20240034736A1, “HSD17B13 INHIBITORS AND USES THEREOF” (FL2022-001, Inc., priority 2020, published 2024).

Target: Recombinant human HSD17B13 enzyme (Homo sapiens (Human), UniProt Q7Z5P4)
Assay: HSD17b13 NAD(P)H-Glo Biochemical Assay
Conditions: 50 uM estradiol, 1 mM NAD+; read-out: HSD17β13 IC50
Procedure, shortened: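 Recombinant human HSD17B13 was pre-incubated with inhibitor for 20 min at RT in 20 mM Tris pH 7.4 with 0.002% Tween-20 and 0.02% BSA. Reaction then ran with 50 uM estradiol and 1 mM NAD+ (final) for 3 h at 37° C. NADH formed was detected by NAD(P)H-Glo luminescence after 1 h at RT.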

Recombinant human HSD17B13 enzyme, sequence (Q7Z5P4 20-300): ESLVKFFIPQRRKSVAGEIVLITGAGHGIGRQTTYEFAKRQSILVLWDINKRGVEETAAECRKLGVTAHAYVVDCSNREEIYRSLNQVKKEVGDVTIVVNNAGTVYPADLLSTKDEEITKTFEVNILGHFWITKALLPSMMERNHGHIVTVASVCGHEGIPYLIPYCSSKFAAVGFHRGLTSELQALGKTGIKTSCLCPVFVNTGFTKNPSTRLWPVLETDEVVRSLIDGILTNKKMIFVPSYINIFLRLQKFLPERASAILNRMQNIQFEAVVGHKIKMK

SMILES	IC50 [nM]
Cc1nn(-c2cc(O)c(F)c(C(F)(F)F)c2)c2cnc(N3CCOCC34CC4)cc12 [Compound 19.85, 2-Fluoro-5-(3-methyl-5-(7-oxa-4-azaspiro[2.5]octan-4-yl)-1H-pyrazolo[3,4-c]pyridin-1-yl)-3-(trifluoromethyl)phenol]	< 100
CC(=O)c1cc(-n2nc(C)c3cc(N4CCOCC45CC5)ncc32)cc(O)c1F [Compound 19.86, 1-(2-Fluoro-3-hydroxy-5-(3-methyl-5-(7-oxa-4-azaspiro[2.5]octan-4-yl)-1H-pyrazolo[3,4-c]pyridin-1-yl)phenyl)ethanone]	100 to 1000
CN(c1ccc2c(c1)c(Cl)nn2-c1cc(C(F)(F)F)c(F)c(O)c1F)C1CCOCC1 [Compound 19.87, 3-(3-Chloro-5-(methyl(tetrahydro-2H-pyran-4-yl)amino)-1H-indazol-1-yl)-2,6-difluoro-5-(trifluoromethyl)phenol]	100 to 1000
COC(=O)c1nn(-c2cc(C(F)(F)F)c(F)c(O)c2F)c2ccc(N(C)C3CCOCC3)cc12 [Compound 19.88, Methyl 1-(2,4-difluoro-3-hydroxy-5-(trifluoromethyl)phenyl)-5-(methyl(tetrahydro-2H-pyran-4-yl)amino)-1H-indazole-3-carboxylate]	100 to 1000
CN(c1ccc2c(c1)c(C(=O)O)nn2-c1cc(C(F)(F)F)c(F)c(O)c1F)C1CCOCC1 [Compound 19.89, 1-(2,4-Difluoro-3-hydroxy-5-(trifluoromethyl)phenyl)-5-(methyl(tetrahydro-2H-pyran-4-yl)amino)-1H-indazole-3-carboxylic Acid]	1000 to 30000
CN(c1ccc2c(c1)c(C#N)nn2-c1cc(C(F)(F)F)c(F)c(O)c1F)C1CCOCC1 [Compound 19.90, 1-(2,4-Difluoro-3-hydroxy-5-(trifluoromethyl)phenyl)-5-(methyl(tetrahydro-2H-pyran-4-yl)amino)-1H-indazole-3-carbonitrile]	100 to 1000
CNc1c(-n2nc(Cl)c3cc(N(C)C4CCOCC4)ccc32)cc(C(F)(F)F)c(F)c1O [Compound 19.91, 3-(3-Chloro-5-(methyl(tetrahydro-2H-pyran-4-yl)amino)-1H-indazol-1-yl)-6-fluoro-2-(methylamino)-5-(trifluoromethyl)phenol]	100 to 1000
Cc1nn(-c2cc(O)c(F)c(NC(=O)C(F)(F)F)c2)c2cnc(N3CCOCC34CC4)cc12 [Compound 19.92, 2,2,2-Trifluoro-N-(2-fluoro-3-hydroxy-5-(3-methyl-5-(7-oxa-4-azaspiro[2.5]octan-4-yl)-1H-pyrazolo[3,4-c]pyridin-1-yl)phenyl)acetamide]	1000 to 30000
Cc1nn(-c2cc(O)c(F)c(C(N)=O)c2)c2cnc(N3CCOCC34CC4)cc12 [Compound 19.96, 2-Fluoro-3-hydroxy-5-(3-methyl-5-(7-oxa-4-azaspiro[2.5]octan-4-yl)-1H-pyrazolo[3,4-c]pyridin-1-yl)benzamide]	1000 to 30000
Cc1nn(-c2cc(O)c(F)c(C(C)O)c2)c2cnc(N3CCOCC34CC4)cc12 (stereo not drawn) [Compound 19.97, 2-Fluoro-3-(1-hydroxyethyl)-5-(3-methyl-5-(7-oxa-4-azaspiro[2.5]octan-4-yl)-1H-pyrazolo[3,4-c]pyridin-1-yl)phenol]	1000 to 30000
Cc1nn(-c2cc(O)c(F)c(C(C)(F)F)c2)c2cnc(N3CCOCC34CC4)cc12 [Compound 19.98, 3-(1,1-Difluoroethyl)-2-fluoro-5-(3-methyl-5-(7-oxa-4-azaspiro[2.5]octan-4-yl)-1H-pyrazolo[3,4-c]pyridin-1-yl)phenol]	100 to 1000
Cc1nn(-c2cc(O)c(F)c(C(=O)N(C)C)c2)c2cnc(N3CCOCC34CC4)cc12 [Compound 19.99, 2-Fluoro-3-hydroxy-N,N-dimethyl-5-(3-methyl-5-(7-oxa-4-azaspiro[2.5]octan-4-yl)-1H-pyrazolo[3,4-c]pyridin-1-yl)benzamide]	100 to 1000
Cc1nn(-c2ccc(F)c(O)c2)c2cc(F)c(N3CCN(S(C)(=O)=O)CC34CC4)cc12 [Compound 19.103, 2-Fluoro-5-(6-fluoro-3-methyl-5-(7-(methylsulfonyl)-4,7-diazaspiro[2.5]octan-4-yl)-1H-indazol-1-yl)phenol]	100 to 1000
Cc1nn(-c2ccc(Cl)c(O)c2F)c2cc(F)c(N3CCN(S(C)(=O)=O)CC34CC4)cc12 [Compound 19.104, 6-Chloro-2-fluoro-3-(6-fluoro-3-methyl-5-(7-(methylsulfonyl)-4,7-diazaspiro[2.5]octan-4-yl)-1H-indazol-1-yl)phenol]	< 100

Further lines, results first:

IC50 [nM]	SMILES
< 100	Cc1nn(-c2cc(C(F)(F)F)c(F)c(O)c2F)c2cnc(N(C)C3CCOCC3)nc12 [Compound 19.78, 2,6-Difluoro-3-(3-methyl-5-(methyl(tetrahydro-2H-pyran-4-yl)amino)-1H-pyrazolo[4,3-d]pyrimidin-1-yl)-5-(trifluoromethyl)phenol]
< 100	Cc1nn(-c2cc(C(F)(F)F)c(F)c(O)c2F)c2cnc(N3CC(C)(C)OC(C)(C)C3)nc12 [Compound 19.79, 2,6-Difluoro-3-(3-methyl-5-(2,2,6,6-tetramethylmorpholino)-1H-pyrazolo[4,3-d]pyrimidin-1-yl)-5-(trifluoromethyl)phenol]
100 to 1000	Oc1c(F)c(-n2ncc3nc(N4CCOCC45CC5)ncc32)cc(C(F)(F)F)c1F [Compound 19.80, 3-(5-(7-Oxa-4-azaspiro[2.5]octan-4-yl)-1H-pyrazolo[4,3-d]pyrimidin-1-yl)-2,6-difluoro-5-(trifluoromethyl)phenol]
< 100	Cc1nn(-c2cc(C(F)(F)F)c(F)c(O)c2F)c2cnc(N3CCOC4(CC4)C3)nc12 [Compound 19.81, 2,6-Difluoro-3-(3-methyl-5-(4-oxa-7-azaspiro[2.5]octan-7-yl)-1H-pyrazolo[4,3-d]pyrimidin-1-yl)-5-(trifluoromethyl)phenol]
< 100	Cc1nn(-c2cc(C(F)(F)F)c(F)c(O)c2F)c2cnc(N3CCOC4(CCC4)C3)nc12 [Compound 19.82, 2,6-Difluoro-3-(3-methyl-5-(5-oxa-8-azaspiro[3.5]nonan-8-yl)-1H-pyrazolo[4,3-d]pyrimidin-1-yl)-5-(trifluoromethyl)phenol]
< 100	Cc1nn(-c2cc(C(F)(F)F)c(F)c(O)c2F)c2cnc(N3CCN(S(=O)(=O)c4ccccc4)CC34CC4)cc12 [Compound 19.83, 2,6-Difluoro-3-(3-methyl-5-(7-(phenylsulfonyl)-4,7-diazaspiro[2.5]octan-4-yl)-1H-pyrazolo[3,4-c]pyridin-1-yl)-5-(trifluoromethyl)phenol]
< 100	Cc1nn(-c2cc(C(F)(F)F)c(F)c(O)c2F)c2cnc(N3CCN(S(=O)(=O)c4cnn(C)c4)CC34CC4)cc12 [Compound 19.84, 2,6-Difluoro-3-(3-methyl-5-(7-((1-methyl-1H-pyrazol-4-yl)sulfonyl)-4,7-diazaspiro[2.5]octan-4-yl)-1H-pyrazolo[3,4-c]pyridin-1-yl)-5-(trifluoromethyl)phenol]
100 to 1000	CN(c1ccc2c(c1)c(N)nn2-c1cc(C(F)(F)F)c(F)c(O)c1F)C1CCOCC1 [Compound 19.93, 3-(3-Amino-5-(methyl(tetrahydro-2H-pyran-4-yl)amino)-1H-indazol-1-yl)-2,6-difluoro-5-(trifluoromethyl)phenol]
< 100	Cc1nn(-c2cc(C(F)(F)F)c(F)c(O)c2F)c2ccc(N3CCOCC34CC4)cc12 [Compound 19.94, 2,6-Difluoro-3-(3-methyl-5-(7-oxa-4-azaspiro[2.5]octan-4-yl)-1H-indazol-1-yl)-5-(trifluoromethyl)phenol]
100 to 1000	Cc1nn(-c2cc(C(F)(F)F)c(F)c(O)c2F)c2cnc(N3CCOCC34CC4)nc12 [Compound 19.95, 2,6-Difluoro-3-(3-methyl-5-(7-oxa-4-azaspiro[2.5]octan-4-yl)-1H-pyrazolo[4,3-d]pyrimidin-1-yl)-5-(trifluoromethyl)phenol]
< 100	Cc1nn(-c2cc(C(F)(F)F)c(F)c(O)c2F)c2cc(F)c(N3CCN(S(C)(=O)=O)CC34CC4)cc12 [Compound 19.100, 2,6-Difluoro-3-(6-fluoro-3-methyl-5-(7-(methylsulfonyl)-4,7-diazaspiro[2.5]octan-4-yl)-1H-indazol-1-yl)-5-(trifluoromethyl)phenol]
100 to 1000	Cc1nn(-c2cc(C(F)(F)F)c(F)c(O)c2F)c2ccc(N(C)C3CCOCC3)c(F)c12 [Compound 19.101, 2,6-Difluoro-3-(4-fluoro-3-methyl-5-(methyl(tetrahydro-2H-pyran-4-yl)amino)-1H-indazol-1-yl)-5-(trifluoromethyl)phenol]
100 to 1000	Cc1nn(-c2cc(C(F)(F)F)c(F)c(O)c2F)c2cnc(N(C)C3CCOCC3)c(F)c12 [Compound 19.102, 2,6-Difluoro-3-(4-fluoro-3-methyl-5-(methyl(tetrahydro-2H-pyran-4-yl)amino)-1H-pyrazolo[3,4-c]pyridin-1-yl)-5-(trifluoromethyl)phenol]
< 100	Cc1nn(-c2cc(C(F)(F)F)c(F)c(O)c2F)c2cnc(N3CCN(S(C)(=O)=O)C4(CCCCC4)C3)cc12 [Compound 19.105, 2,6-Difluoro-3-(3-methyl-5-(1-(methylsulfonyl)-1,4-diazaspiro[5.5]undecan-4-yl)-1H-pyrazolo[3,4-c]pyridin-1-yl)-5-(trifluoromethyl)phenol]
100 to 1000	CNc1nn(-c2cc(C(F)(F)F)c(F)c(O)c2F)c2ccc(N(C)C3CCOCC3)cc12 [Compound 19.106, 2,6-Difluoro-3-(5-(methyl(tetrahydro-2H-pyran-4-yl)amino)-3-(methylamino)-1H-indazol-1-yl)-5-(trifluoromethyl)phenol]
< 100	Cc1nn(-c2cc(C(F)(F)F)c(F)c(O)c2F)c2cnc(N3CCN(S(C)(=O)=O)CC34CC4)nc12 [Compound 19.107, 2,6-Difluoro-3-(3-methyl-5-(7-(methylsulfonyl)-4,7-diazaspiro[2.5]octan-4-yl)-1H-pyrazolo[4,3-d]pyrimidin-1-yl)-5-(trifluoromethyl)phenol]
